Results on ten compounds are retold here after PubChem BioAssay (NCI).

SMILES strings stand for the structures.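 Tested at 5 concentrations; 48 h exposure; 96-well plates; endpoints linearly interpolated, else capped at highest concentration. Definition used: TGI = concentration required for complete inhibition of growth.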

Among the test systems are SW-620 colon; OVCAR-3 ovarian; SNB-75 CNS; SK-MEL-28 melanoma; SNB-19 CNS; HS 578T breast; SK-OV-3 ovarian; ACHN renal; MDA-MB-435; M14 melanoma; RPMI-8226 leukemia; HCT-15 colon; RXF 393 renal; OVCAR-5 ovarian; A498 renal; LOX IMVI melanoma.
What all share (assay): NCI tumour cell line growth inhibition, 48 h

On to `C/C(Nc1ccc(Cl)cc1)=C1/CCOC1=O`, for which the TGI in the assay with SW-620 colon, in the assay on OVCAR-3 ovarian, in the assay on SNB-75 CNS, with SK-MEL-28 melanoma, in the assay on SNB-19 CNS and in the assay with HS 578T breast was more than 100 µM throughout. The TGI was more than 100 µM in the assay with SK-OV-3 ovarian; more than 100 µM with ACHN renal; more than 100 µM in the assay on MDA-MB-435; more than 100 µM in the assay with M14 melanoma; 60.3 µM with RPMI-8226 leukemia; more than 100 µM in the assay on HCT-15 colon. Moreover, the TGI in the assay on RXF 393 renal, with OVCAR-5 ovarian and in the assay on A498 renal was more than 100 µM each time.
As for `O=C(NCc1ccccc1Cl)c1c(O)c2ccccc2[nH]c1=O`, the TGI in the assay on SW-620 colon was 64.3 µM; in the assay with OVCAR-3 ovarian, more than 100 µM; with SNB-75 CNS, 52.2 µM; with SK-MEL-28 melanoma, more than 100 µM; with SNB-19 CNS, more than 100 µM; with HS 578T breast, more than 100 µM. Further, the TGI is more than 100 µM in the assay with MDA-MB-435; more than 100 µM in the assay on RPMI-8226 leukemia; more than 100 µM in the assay with HCT-15 colon; more than 100 µM in the assay with LOX IMVI melanoma; 63.1 µM with RXF 393 renal; more than 100 µM in the assay on OVCAR-5 ovarian. Besides, the TGI in the assay on A498 renal stood at 30.4 µM.
Turning to `C[n+]1c(-c2ccc(/C=N/NC(=O)C(=O)N/N=C/c3ccc(-c4cn5ccccc5[n+]4C)cc3)cc2)cn2ccccc21`, the TGI with SW-620 colon, in the assay with OVCAR-3 ovarian, with SNB-75 CNS, in the assay on SNB-19 CNS, with HS 578T breast and in the assay with SK-OV-3 ovarian was more than 100 µM throughout. Besides, the TGI in the assay on ACHN renal, in the assay on MDA-MB-435, with M14 melanoma, in the assay with RPMI-8226 leukemia, with HCT-15 colon and with RXF 393 renal was more than 100 µM each time. Besides, the TGI with OVCAR-5 ovarian and with A498 renal was more than 100 µM throughout.
Take `CCCCCCCc1ccc(-c2nnc(N=Nc3ccc(OCCCCC)cc3)s2)s1`: the TGI in the assay on SW-620 colon, in the assay on OVCAR-3 ovarian, in the assay with SNB-75 CNS, with SK-MEL-28 melanoma, in the assay with SNB-19 CNS and in the assay on HS 578T breast was more than 100 µM each time. Also, the TGI with SK-OV-3 ovarian, in the assay on ACHN renal, in the assay on MDA-MB-435, in the assay with M14 melanoma, in the assay on RPMI-8226 leukemia and in the assay on HCT-15 colon was more than 100 µM in each case. Also, the TGI in the assay with RXF 393 renal, in the assay with OVCAR-5 ovarian and in the assay on A498 renal was more than 100 µM in each case.
On to `CC(=O)[C@]1(O)Cc2c(O)c3c(c(O)c2[C@@H](OC2CC(N)C(O)C(C)O2)C1)C(=O)c1c(OCc2ccccc2)cccc1C3=O` (some centres not stated), for which the TGI in the assay with SW-620 colon amounted to 2 µM; with OVCAR-3 ovarian it was 6.87 µM; in the assay on SNB-75 CNS, 13.8 µM; in the assay on SK-MEL-28 melanoma, 2.91 µM; with SNB-19 CNS it was 9.04 µM; in the assay on HS 578T breast, 2.29 µM. The TGI with SK-OV-3 ovarian is 21.2 µM; in the assay with ACHN renal, 4.91 µM; in the assay with MDA-MB-435, 2.95 µM; with M14 melanoma it was 2.89 µM; in the assay on RPMI-8226 leukemia, more than 100 µM; in the assay with HCT-15 colon, 2.75 µM. In addition, the TGI in the assay with RXF 393 renal was determined as 15.1 µM; in the assay with OVCAR-5 ovarian, 5.12 µM; in the assay on A498 renal it was 21.8 µM.
With `CCCCCCCCCCCCC1N=C(N)NC2(CCCO2)C1C(=O)OC` (configuration not stated), the TGI was 7.65 µM in the assay on SW-620 colon; 13.2 µM in the assay with OVCAR-3 ovarian; 7.99 µM in the assay on SNB-75 CNS; 21.6 µM in the assay on SK-MEL-28 melanoma; 9.92 µM with SNB-19 CNS; 8.89 µM with HS 578T breast. In addition, the TGI came out at 23.8 µM in the assay with SK-OV-3 ovarian; 25.2 µM in the assay with ACHN renal; 15.6 µM in the assay with MDA-MB-435; 16.6 µM in the assay with M14 melanoma; 5.53 µM with RPMI-8226 leukemia; 42.9 µM in the assay on HCT-15 colon. Besides, the TGI in the assay on RXF 393 renal was 6.12 µM; in the assay on OVCAR-5 ovarian, 22.1 µM; in the assay with A498 renal it was 47.7 µM.
For the compound `CN(C)C(=O)Oc1ccc(C(=S)Nc2ccccc2)cc1`, the TGI in the assay with SW-620 colon, in the assay with OVCAR-3 ovarian, in the assay with SK-MEL-28 melanoma, in the assay on SNB-19 CNS, in the assay on HS 578T breast and in the assay on SK-OV-3 ovarian was more than 100 µM each time. Further, the TGI in the assay on ACHN renal, in the assay with MDA-MB-435, in the assay with M14 melanoma, in the assay with RPMI-8226 leukemia, in the assay with HCT-15 colon and with LOX IMVI melanoma was more than 100 µM each time. For the same compound, the TGI in the assay on OVCAR-5 ovarian and in the assay on A498 renal was more than 100 µM in each case.
In the case of `Cc1cc2c(cc1Cl)Sc1n[nH]c(=O)n1S2(=O)=O`, the TGI in the assay on SW-620 colon, with OVCAR-3 ovarian, in the assay with SNB-75 CNS, with SK-MEL-28 melanoma, in the assay on SNB-19 CNS and in the assay with HS 578T breast was more than 100 µM each time. Further, the TGI with SK-OV-3 ovarian, in the assay on ACHN renal, with MDA-MB-435, in the assay on M14 melanoma, in the assay on HCT-15 colon and in the assay on LOX IMVI melanoma was more than 100 µM in each case. In addition, the TGI was more than 100 µM in the assay on OVCAR-5 ovarian and 90.8 µM with A498 renal.
As to `COc1cccc(CCCNC(=O)Cc2ccccc2CO)c1`, the TGI with SW-620 colon, in the assay on OVCAR-3 ovarian, in the assay with SNB-75 CNS, in the assay with SK-MEL-28 melanoma, in the assay with SNB-19 CNS and in the assay with HS 578T breast was more than 100 µM in each case. The TGI with SK-OV-3 ovarian, with ACHN renal, with MDA-MB-435, in the assay on M14 melanoma, in the assay on HCT-15 colon and in the assay on LOX IMVI melanoma was more than 100 µM each time. Also, the TGI in the assay with OVCAR-5 ovarian and with A498 renal was more than 100 µM throughout.
Take `C=CCOC(=O)N1c2ccc(O)cc2[C@@]23O[C@@]24[C@@H]1C#C/C=C\C#C[C@]3(O)C(=O)C[C@@H]4C`: the TGI in the assay on SW-620 colon, with SNB-75 CNS, in the assay on SK-MEL-28 melanoma, with SNB-19 CNS, with HS 578T breast and in the assay with ACHN renal was more than 100 µM in each case. In addition, the TGI in the assay with MDA-MB-435, in the assay with M14 melanoma, in the assay with RPMI-8226 leukemia, in the assay with HCT-15 colon, in the assay with RXF 393 renal and with OVCAR-5 ovarian was more than 100 µM throughout. The compound further had a TGI in the assay on A498 renal of more than 100 µM.
